Laboratory results: patent US20160229839A1, “Factor XIa Inhibitors” (Merck Sharp & Dohme Corp., priority 2013, published 2016)

Target: T1, purified human Factor XIa (Homo sapiens, UniProt P03951)
T1 construct: purified human Factor XIa; purchased Sekisui Diagnostics
Assay: Factor XIa Assay (fluorogenic substrate Z-Gly-Pro-Arg-AFC)
Assay type: biochemical
Conditions: purified human Factor XIa 40 pM; Z-Gly-Pro-Arg-AFC 100 μM; 50 mM HEPES pH 7.4; read-out: hFXIa Ki (nM), Factor XIa inhibition
Description: The effectiveness of compound of the present invention as inhibitors of Coagulation Factor XIa can be determined using a relevant purified serine protease, and an appropriate synthetic substrate. The rate of hydrolysis of the chromogenic or fluorogenic substrate by the relevant serine protease was measured both in the absence and presence of compounds of the present invention. Assays were conducted at room temperature or at 37° C. […] A decrease in the rate of fluorescence change in the presence of inhibitor is indicative of enzyme inhibition. Such methods are known to one skilled in the art. The results of this assay are expressed as the inhibitory constant, Ki.
Factor XIa determinations were made in 50 mM HEPES buffer at pH 7.4 containing 150 mM NaCl, 5 mM CaCl2, and 0.1% PEG 8000 (polyethylene glycol; J T Baker or Fisher Scientific). Determinations were made using purified human Factor XIa at a final concentration of 40 pM (Sekisui Diagnostics) and he synthetic substrate, Z-Gly-Pro-Arg-AFC, TFA salt (Sigma #C0980) at a concentration of 100 μM.
Activity assays were performed by diluting a stock solution of substrate at least tenfold to a final concentration ≦0.1 Km into a solution containing enzyme or enzyme equilibrated with inhibitor. Times required to achieve equilibration between enzyme and inhibitor were determined in control experiments. Initial velocities of product formation in the absence (Vo) or presence of inhibitor (Vi) were measured. Assuming competitive inhibition, and that unity is negligible compared Km/[S], [I]/e, and [I]/e (where [S], [I], and e respectively represent the total concentrations, of substrate, inhibitor and enzyme), the equilibrium constant (Ki) for dissociation of the inhibitor from the enzyme can be obtained from the dependence of Vo/Vi on [I] shown in the following equation.

T1 sequence (P03951 388-625 limits assumed): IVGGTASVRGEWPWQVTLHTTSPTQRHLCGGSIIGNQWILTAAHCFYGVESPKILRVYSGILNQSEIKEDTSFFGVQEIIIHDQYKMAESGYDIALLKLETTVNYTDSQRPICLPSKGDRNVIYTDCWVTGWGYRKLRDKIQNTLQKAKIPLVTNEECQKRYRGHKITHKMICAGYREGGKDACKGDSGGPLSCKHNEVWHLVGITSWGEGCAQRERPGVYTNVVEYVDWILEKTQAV
T1 sequence (P03951 19-387 partner limits assumed): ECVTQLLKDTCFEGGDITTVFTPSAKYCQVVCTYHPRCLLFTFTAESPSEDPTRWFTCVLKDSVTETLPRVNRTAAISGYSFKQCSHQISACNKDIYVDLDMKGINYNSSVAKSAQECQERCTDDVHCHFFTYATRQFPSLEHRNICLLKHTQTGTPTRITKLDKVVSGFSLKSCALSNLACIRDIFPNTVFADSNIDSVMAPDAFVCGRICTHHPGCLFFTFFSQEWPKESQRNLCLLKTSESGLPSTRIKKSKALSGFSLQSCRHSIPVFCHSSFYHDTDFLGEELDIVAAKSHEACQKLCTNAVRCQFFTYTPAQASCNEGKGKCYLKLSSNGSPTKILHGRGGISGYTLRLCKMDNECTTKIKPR

SMILES | Ki [nM]
COC(=O)c1ccc(-c2c[nH]c(C3C(c4ccccc4)CCCN3C(=O)/C=C/c3cc(Cl)ccc3-n3cnnn3)n2)cc1 (stereo not shown) [Example 1-40, (E)-methyl 4-(2-(1-(3-(5-chloro-2-(1H-tetrazol-1-yl)phenyl)acryloyl)-3-phenylpiperidin-2-yl)-1H-imidazol-4-yl)benzoate] | > 10000
O=C(/C=C/c1cc(Cl)ccc1-n1cnnn1)N1CCCC(c2ccccc2)C1c1nc(-c2ccccn2)c[nH]1 (stereo not shown) [Example 1-41, (E)-3-(5-chloro-2-(1H-tetrazol-1-yl)phenyl)-1-(3-phenyl-2-(4-(pyridin-2-yl)-1H-imidazol-2-yl)piperidin-1-yl)prop-2-en-1-one] | 3270
O=C(O)c1ccc(-c2c[nH]c(C3C(c4ccccc4)CCCN3C(=O)/C=C/c3cc(Cl)ccc3-n3cnnn3)n2)cc1 (stereo not shown) [Example 1-45, (E)-4-(2-(1-(3-(5-chloro-2-(1H-tetrazol-1-yl)phenyl)acryloyl)-3-phenylpiperidin-2-yl)-1H-imidazol-4-yl)benzoic acid] | 2820
COC(=O)Nc1ccc(-c2c[nH]c(C3C(c4ccccc4)CCCN3C(=O)/C=C/c3cc(Cl)ccc3-n3cnnn3)n2)cc1 (stereo not shown) [Example 1-47, (E)-methyl (4-(2-(1-(3-(5-chloro-2-(1H-tetrazol-1-yl)phenyl)acryloyl)-3-phenylpiperidin-2-yl)-1H-imidazol-4-yl)phenyl)carbamate] | > 10000
NCC1CCC(C(=O)N2CCCC(c3ccccc3)C2C(=O)Nc2ccc(C(=O)O)cc2)CC1 (stereo not shown) [Example 1-49, 4-(1-(4-(aminomethyl)cyclohexanecarbonyl)-3-phenylpiperidine-2-carboxamido)benzoic acid] | 916
CCCC(=O)Nc1cc(NC(=O)OC)ccc1-c1c[nH]c(C2C(c3ccccc3)CCCN2C(=O)/C=C/c2cc(Cl)ccc2-n2cnnn2)n1 (stereo not shown) [Example 1-51, (E)-methyl (3-butyramido-4-(2-(1-(3-(5-chloro-2-(1H-tetrazol-1-yl)phenyl)acryloyl)-3-phenylpiperidin-2-yl)-1H-imidazol-4-yl)phenyl)carbamate] | > 10000
O=C(/C=C/c1cc(Cl)ccc1-n1cnnn1)N1CCCC(c2ccccc2)C1c1nc(-c2ccc3[nH]c(=O)oc3c2)c[nH]1 (stereo not shown) [Example 1-53, (E)-6-(2-(1-(3-(5-chloro-2-(1H-tetrazol-1-yl)phenyl)acryloyl)-3-phenylpiperidin-2-yl)-1H-imidazol-4-yl)benzo[d]oxazol-2(3H)-one] | > 10000
O=C(O)c1ccc(NC(=O)[C@H]2[C@@H](c3ccccc3)CCCN2C(=O)/C=C/c2cc(Cl)ccc2-n2cnnn2)cc1 [Example 1-56, 4-((2R,3R)-1-((E)-3-(5-chloro-2-(1H-tetrazol-1-yl)phenyl)acryloyl)-3-phenylpiperidine-2-carboxamido)benzoic acid] | 4010
O=C1Cc2cc(-c3cnc([C@H]4[C@@H](c5ccccc5)CCCN4C(=O)/C=C/c4cc(Cl)ccc4-n4cnnn4)[nH]3)ccc2N1 [Example 1-62, 2-((2R,3R)-1-((E)-3-(5-chloro-2-(1H-tetrazol-1-yl)phenyl)acryloyl)-3-phenylpiperidin-2-yl)-5-(2-oxoindolin-5-yl)-1H-imidazol-3-ium 2,2,2-trifluoroacetate] | > 10000
COC(=O)Nc1ccc(-c2nc([C@H]3[C@@H](c4ccccc4)CCCN3C(=O)/C=C/c3cc(Cl)ccc3-n3cnnn3)[nH]c2Cl)cc1 [Example 1-64, methyl (4-(5-chloro-2-((2R,3R)-1-((E)-3-(5-chloro-2-(1H-tetrazol-1-yl)phenyl)acryloyl)-3-phenylpiperidin-2-yl)-1H-imidazol-4-yl)phenyl)carbamate] | > 10000

Now those with a lower Ki, led by results:

Ki [nM] | SMILES
411 | COC(=O)Nc1ccc(-c2c[nH]c(C3C(c4ccccc4)CCCN3C(=O)/C=C/c3cc(Cl)ccc3-n3cnnn3)n2)c(Br)c1 (stereo not shown) [Example 1-44, (E)-methyl (3-bromo-4-(2-(1-(3-(5-chloro-2-(1H-tetrazol-1-yl)phenyl)acryloyl)-3-phenylpiperidin-2-yl)-1H-imidazol-4-yl)phenyl)carbamate]
237 | O=C(/C=C/c1cc(Cl)ccc1-n1cnnn1)N1CCCC(c2ccccc2)C1c1nc(-c2ccncc2)c[nH]1 (stereo not shown) [Example 1-42, (E)-3-(5-chloro-2-(1H-tetrazol-1-yl)phenyl)-1-(3-phenyl-2-(4-(pyridin-4-yl)-1H-imidazol-2-yl)piperidin-1-yl)prop-2-en-1-one]
207 | O=C1Cc2cc(-c3cnc([C@@H]4[C@H](c5ccccc5)CCCN4C(=O)/C=C/c4cc(Cl)ccc4-n4cnnn4)[nH]3)ccc2N1 [Example 1-63, 5-(2-((2S,3S)-1-((E)-3-(5-chloro-2-(1H-tetrazol-1-yl)phenyl)acryloyl)-3-phenylpiperidin-2-yl)-1H-imidazol-5-yl)indolin-2-one]
169 | NCc1ccc(C(=O)N2CCCC(c3ccccc3)C2C(=O)Nc2ccc(C(=O)O)cc2)cc1C1CC1 (stereo not shown) [Example 1-43, (4-(2-((4-carboxyphenyl)carbamoyl)-3-phenylpiperidine-1-carbonyl)-2-cyclopropylphenyl)methanaminium 2,2,2-trifluoroacetate]
145 | O=C(Nc1ccc2[nH]ncc2c1)C1C(c2ccccc2)CCCN1C(=O)/C=C/c1cc(Cl)ccc1-n1cnnn1 (stereo not shown) [Example 1-60, (E)-1-(3-(5-chloro-2-(1H-tetrazol-1-yl)phenyl)acryloyl)-N-(1H-indazol-5-yl)-3-phenylpiperidine-2-carboxamide]
103 | COC(=O)Nc1ccc(-c2c[nH]c(C3C(c4ccccc4)CCCN3C(=O)/C=C/c3cc(Cl)ccc3-n3cnnn3)n2)c(N)c1 (stereo not shown) [Example 1-48, (E)-methyl (3-amino-4-(2-(1-(3-(5-chloro-2-(1H-tetrazol-1-yl)phenyl)acryloyl)-3-phenylpiperidin-2-yl)-1H-imidazol-4-yl)phenyl)carbamate]
95.8 | COC(=O)Nc1ccc(-c2nc(C3C(c4ccccc4)CCCN3C(=O)/C=C/c3cc(Cl)ccc3-n3cnnn3)[nH]c2C)cc1 (stereo not shown) [Example 1-52, (E)-methyl (4-(2-(1-(3-(5-chloro-2-(1H-tetrazol-1-yl)phenyl)acryloyl)-3-phenylpiperidin-2-yl)-5-methyl-1H-imidazol-4-yl)phenyl)carbamate]
91.6 | O=C(Nc1ccc2cn[nH]c2c1)C1C(c2ccccc2)CCCN1C(=O)/C=C/c1cc(Cl)ccc1-n1cnnn1 (stereo not shown) [Example 1-61, (E)-1-(3-(5-chloro-2-(1H-tetrazol-1-yl)phenyl)acryloyl)-N-(1H-indazol-6-yl)-3-phenylpiperidine-2-carboxamide]
90 | COC(=O)Nc1ccc(-c2c[nH]c(C3C(c4ccccc4)CCCN3C(=O)/C=C/c3cc(Cl)ccc3-n3cnnn3)n2)cc1 (stereo not shown) [Example 1-38, (E)-methyl (4-(2-(1-(3-(5-chloro-2-(1H-tetrazol-1-yl)phenyl)acryloyl)-3-phenylpiperidin-2-yl)-1H-imidazol-4-yl)phenyl)carbamate]
72.8 | NCC1CCC(C(=O)N2CCCC(c3ccccc3)C2C(=O)Nc2ccc(C(=O)O)cc2)CC1 (stereo not shown) [Example 1-50, 4-(1-(4-(aminomethyl)cyclohexanecarbonyl)-3-phenylpiperidine-2-carboxamido)benzoic acid]
65.5 | COC(=O)Nc1ccc(-c2c[nH]c(C3C(c4ccccc4)CCCN3C(=O)/C=C/c3cc(Cl)ccc3-n3cnnn3)n2)cc1 (stereo not shown) [Example 1-46, (E)-methyl (4-(2-(1-(3-(5-chloro-2-(1H-tetrazol-1-yl)phenyl)acryloyl)-3-phenylpiperidin-2-yl)-1H-imidazol-4-yl)phenyl)carbamate]
56.9 | O=C(O)c1cccc(-c2c[nH]c(C3C(c4ccccc4)CCCN3C(=O)/C=C/c3cc(Cl)ccc3-n3cnnn3)n2)c1 (stereo not shown) [Example 1-58, (E)-3-(2-(1-(3-(5-chloro-2-(1H-tetrazol-1-yl)phenyl)acryloyl)-3-phenylpiperidin-2-yl)-1H-imidazol-4-yl)benzoic acid]
45.6 | NCC1CCC(C(=O)N2CCCC(c3ccccc3)C2C(=O)Nc2ccc(C(=O)O)cc2)CC1 (stereo not shown) [Example 1-39, (4-(2-((4-carboxyphenyl)carbamoyl)-3-phenylpiperidine-1-carbonyl)cyclohexyl)methanaminium 2,2,2-trifluoroacetate]
31.5 | COC(=O)Nc1ccc(-c2nc([C@@H]3[C@H](c4ccccc4)CCCN3C(=O)/C=C/c3cc(Cl)ccc3-n3cnnn3)[nH]c2Cl)cc1 [Example 1-55, Methyl (4-(5-chloro-2-((2S,3S)-1-((E)-3-(5-chloro-2-(1H-tetrazol-1-yl)phenyl)acryloyl)-3-phenylpiperidin-2-yl)-1H-imidazol-4-yl)phenyl)carbamate]
13.9 | O=C(Nc1ccc2[nH]ncc2c1)C1C(c2ccccc2)CCCN1C(=O)/C=C/c1cc(Cl)ccc1-n1cnnn1 (stereo not shown) [Example 1-59, (E)-1-(3-(5-chloro-2-(1H-tetrazol-1-yl)phenyl)acryloyl)-N-(1H-indazol-5-yl)-3-phenylpiperidine-2-carboxamide]
